Assay results published in US20130336988A1, “METHODS FOR TREATING EARLY STAGE OR MILD NEUROLOGICAL DISORDERS” (NEW YORK UNIVERSITY, priority 2010, published 2013).

System: Cortical neurons expressing p75^NTR
Assay: Growth cone collapse in cortical neurons
Format: cell-based, mouse
Conditions: cortical neurons expressing p75NTR (not shown)
Protocol: Primary hippocampal and cortical neurons were isolated from E15 C57BL/6 mouse embryos as previously described (PEREIRA, D. B. et al., Journal of Neuroscience 27:4859-4869 (2007)). Briefly, neurons were dissociated by incubation with 0.05% trypsin at 37° C. for 8 min followed by trituration with fire-polished glass Pasteur pipettes. Cells were plated on poly-D-lysine coated dishes and grown in Neurobasal medium containing B27, 0.5 mM glutamine (all Invitrogen) and 10 μM 5-fluorodeoxyuridine. Hippocampal neurons were transfected at DIV2 using Lipofectamine2000 (Invitrogen). For coverslips in a 24-well plate, 0.5 μg plasmid were mixed with 0.5 μl Lipofectamine2000, and for glass bottom dishes, 1.5 μg plasmid were mixed with 1.5 μl Lipofectamine2000. The complexes were added to the cells for 30-45 min, and then neurons were placed back into preconditioned media until analysis the following day. HT1080 cells were grown in DMEM/10% fetal bovine serum (both Invitrogen) and transfected using the AMAXA nucleofector (Lonza) according to manufacturer's instructions. 293FT cells were grown in DMEM/10% fetal bovine serum and transfected with Lipofectamine2000 according to manufacturer's instructions.

proNGF: proneurotrophin precursor of nerve growth factor, produced in Sf9 cells and purified
growth cone collapse in cortical neurons: displayed growth cone collapse
